Data as given in article PMC5812813 (Journal of the American Chemical Society, 2018).
Where two headings read alike, the source gives them in different places.

Tests used:
CYP2C9 [1] = target: T1, CYP2C9 (Homo sapiens, UniProt P11712); conditions: cited from earlier work
hERG channel [2] = target: T2, hERG channel (Homo sapiens, UniProt Q12809); conditions: cited from earlier work
infantile spasms = conditions: cited from earlier work
[3] = tested on: hippocampus glucose metabolism; conditions: previously tested in similar tests; cited from earlier work
[4] = tested on: alanine aminotransferase (Ala-AT); conditions: cited from earlier work
CYP3A [5] = conditions: cited from earlier work
[6] = target: T3, ornithine aminotransferase (OAT) (Homo sapiens, UniProt P04181); conditions: cited from earlier work
T3 sequence (P04181 36-439 limits assumed): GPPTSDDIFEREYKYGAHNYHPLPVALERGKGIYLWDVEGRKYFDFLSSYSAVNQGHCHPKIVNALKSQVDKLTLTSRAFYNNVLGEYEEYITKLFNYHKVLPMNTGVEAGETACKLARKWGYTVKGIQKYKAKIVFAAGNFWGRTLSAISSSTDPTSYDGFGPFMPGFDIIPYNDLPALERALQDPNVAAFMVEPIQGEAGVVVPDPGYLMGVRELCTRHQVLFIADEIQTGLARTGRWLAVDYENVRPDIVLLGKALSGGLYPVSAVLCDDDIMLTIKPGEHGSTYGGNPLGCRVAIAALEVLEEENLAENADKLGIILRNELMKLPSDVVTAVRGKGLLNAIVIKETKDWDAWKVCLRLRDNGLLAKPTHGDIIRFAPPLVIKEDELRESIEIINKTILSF

CYP2D6 [7] = target: T4, CYP2D6 (Homo sapiens, UniProt P10635); conditions: cited from earlier work
[8] = target: T5, aspartate aminotransferase (Asp-AT) (Sus scrofa, UniProt P00503); conditions: cited from earlier work
CYP2C8 [9] = target: T6, CYP2C8 (Homo sapiens, UniProt P10632); conditions: cited from earlier work
T6 sequence (P10632 1-490): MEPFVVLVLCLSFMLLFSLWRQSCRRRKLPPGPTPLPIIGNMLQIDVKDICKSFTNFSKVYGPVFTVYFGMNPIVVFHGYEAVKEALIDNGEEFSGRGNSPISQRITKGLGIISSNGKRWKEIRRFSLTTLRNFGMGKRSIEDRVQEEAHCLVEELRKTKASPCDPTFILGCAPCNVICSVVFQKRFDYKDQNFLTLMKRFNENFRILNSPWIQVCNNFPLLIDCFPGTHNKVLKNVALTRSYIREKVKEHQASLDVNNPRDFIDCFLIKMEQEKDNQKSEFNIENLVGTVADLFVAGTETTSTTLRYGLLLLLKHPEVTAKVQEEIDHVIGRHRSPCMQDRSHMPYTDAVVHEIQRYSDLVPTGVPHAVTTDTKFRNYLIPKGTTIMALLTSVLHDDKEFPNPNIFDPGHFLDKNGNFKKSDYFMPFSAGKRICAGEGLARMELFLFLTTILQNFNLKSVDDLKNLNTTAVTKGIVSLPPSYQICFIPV

CYP2C19 [10] = target: T7, CYP2C19 (Homo sapiens, UniProt P33261); conditions: cited from earlier work
CYP1A [11] = target: T8, CYP1A (Homo sapiens, UniProt P05177); conditions: cited from earlier work
T8 sequence (P05177 1-516): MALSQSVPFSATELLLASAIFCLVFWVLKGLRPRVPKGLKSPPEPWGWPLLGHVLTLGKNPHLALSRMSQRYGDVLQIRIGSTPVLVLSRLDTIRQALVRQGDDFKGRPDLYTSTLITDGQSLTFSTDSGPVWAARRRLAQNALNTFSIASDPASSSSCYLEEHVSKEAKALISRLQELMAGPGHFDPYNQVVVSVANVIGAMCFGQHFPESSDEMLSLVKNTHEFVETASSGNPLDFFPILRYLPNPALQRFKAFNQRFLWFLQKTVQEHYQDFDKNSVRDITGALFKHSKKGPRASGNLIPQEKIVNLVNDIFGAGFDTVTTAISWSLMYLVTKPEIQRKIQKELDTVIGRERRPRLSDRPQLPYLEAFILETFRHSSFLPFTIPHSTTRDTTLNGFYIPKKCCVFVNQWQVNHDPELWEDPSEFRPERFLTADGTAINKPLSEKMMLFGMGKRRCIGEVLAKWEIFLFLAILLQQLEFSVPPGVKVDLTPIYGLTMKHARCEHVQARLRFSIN

CYP2B6 [12] = target: T9, CYP2B6 (Homo sapiens, UniProt P20813); conditions: cited from earlier work
T9 sequence (P20813 1-491): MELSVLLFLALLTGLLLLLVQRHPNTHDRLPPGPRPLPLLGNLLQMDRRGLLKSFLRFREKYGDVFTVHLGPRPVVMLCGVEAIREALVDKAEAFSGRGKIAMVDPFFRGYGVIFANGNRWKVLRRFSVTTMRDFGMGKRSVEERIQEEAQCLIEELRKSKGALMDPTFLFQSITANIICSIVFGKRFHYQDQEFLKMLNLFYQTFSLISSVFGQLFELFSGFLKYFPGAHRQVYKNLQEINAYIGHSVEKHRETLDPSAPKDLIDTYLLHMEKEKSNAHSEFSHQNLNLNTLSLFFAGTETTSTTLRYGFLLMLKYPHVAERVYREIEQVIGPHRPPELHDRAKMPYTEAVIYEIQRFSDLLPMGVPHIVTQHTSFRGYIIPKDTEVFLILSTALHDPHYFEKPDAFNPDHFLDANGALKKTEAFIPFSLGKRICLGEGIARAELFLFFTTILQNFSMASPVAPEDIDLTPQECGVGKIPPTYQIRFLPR

[13] = tested on: cocaine- or nicotine-induced increases in synaptic dopamine (corpus striatum); type: in vivo, rat
CYP2D6 [14] = target: T4, CYP2D6; experiment: CYP2D6 inhibition; type: in vitro ADME; conditions: 10 μM
[15] = Metabolic stability in human liver microsomes; type: in vitro ADME; conditions: 1 μM, 90 min assay time, 37 °, LC-MS/MS
CYP2C9 [16] = target: T1, CYP2C9; experiment: CYP2C9 inhibition; type: in vitro ADME; conditions: 10 μM
CYP2C19 [17] = target: T7, CYP2C19; experiment: CYP2C19 inhibition; type: in vitro ADME; conditions: 10 μM
[18] = target: T3, ornithine aminotransferase (OAT); experiment: Time- and concentration-dependent inhibition of ornithine aminotransferase; type: biochemical
CYP3A [19] = experiment: CYP3A inhibition; type: in vitro ADME, human; conditions: 10 μM
[20] = Ames test for mutagenicity
[21] = tested on: alanine aminotransferase (Ala-AT); experiment: Inhibition of alanine aminotransferase; type: biochemical
CYP2B6 [22] = target: T9, CYP2B6; experiment: CYP2B6 inhibition; type: in vitro ADME; conditions: 10 μM
CYP1A [23] = target: T8, CYP1A; experiment: CYP1A inhibition; type: in vitro ADME; conditions: 10 μM
[24] = tested on: hippocampus glucose metabolism; experiment: microPET 18FDG, cocaine-induced increases in glucose metabolism; type: in vivo, rat; conditions: 5 before cocaine, statistical parametric mapping, p < 0.00001
[25] = tested on: 176 pharmacological targets; experiment: Cerep SpectrumScreen; conditions: 3 μM
[26] = target: T5, aspartate aminotransferase (Asp-AT); experiment: Inhibition of aspartate aminotransferase; type: biochemical
CYP2C8 [27] = target: T6, CYP2C8; experiment: CYP2C8 inhibition; type: in vitro ADME; conditions: 10 μM
Irwin = experiment: Irwin; set-up: species or system mice; conditions: mouse, in vivo, po
hERG channel [28] = target: T2, hERG channel; experiment: Inhibition of the hERG channel; type: cell-based; conditions: at 10 μM
[29] = after long-term administration; cited from earlier work
cocaine addiction = conditions: 9-week double-blind trial; cited from earlier work
[30] = 5 0.1 mg/kg prior to cocaine 10 mg/kg
[31] = 5 1.0 mg/kg prior to cocaine 10 mg/kg

T4 sequence (P10635 whole entry): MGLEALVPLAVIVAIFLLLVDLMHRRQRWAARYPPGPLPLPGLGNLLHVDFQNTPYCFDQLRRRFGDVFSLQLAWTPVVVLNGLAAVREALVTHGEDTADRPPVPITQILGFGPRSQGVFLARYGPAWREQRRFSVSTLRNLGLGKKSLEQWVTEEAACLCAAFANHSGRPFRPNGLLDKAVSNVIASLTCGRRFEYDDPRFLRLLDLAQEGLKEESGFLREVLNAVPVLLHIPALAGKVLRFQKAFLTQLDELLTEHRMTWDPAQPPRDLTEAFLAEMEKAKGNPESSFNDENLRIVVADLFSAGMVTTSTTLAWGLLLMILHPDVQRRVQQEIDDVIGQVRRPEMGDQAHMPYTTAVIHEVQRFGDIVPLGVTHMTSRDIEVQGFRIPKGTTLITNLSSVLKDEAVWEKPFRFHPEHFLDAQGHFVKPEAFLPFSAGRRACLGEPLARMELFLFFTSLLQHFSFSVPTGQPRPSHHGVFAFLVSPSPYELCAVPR
T2 sequence (Q12809 whole entry): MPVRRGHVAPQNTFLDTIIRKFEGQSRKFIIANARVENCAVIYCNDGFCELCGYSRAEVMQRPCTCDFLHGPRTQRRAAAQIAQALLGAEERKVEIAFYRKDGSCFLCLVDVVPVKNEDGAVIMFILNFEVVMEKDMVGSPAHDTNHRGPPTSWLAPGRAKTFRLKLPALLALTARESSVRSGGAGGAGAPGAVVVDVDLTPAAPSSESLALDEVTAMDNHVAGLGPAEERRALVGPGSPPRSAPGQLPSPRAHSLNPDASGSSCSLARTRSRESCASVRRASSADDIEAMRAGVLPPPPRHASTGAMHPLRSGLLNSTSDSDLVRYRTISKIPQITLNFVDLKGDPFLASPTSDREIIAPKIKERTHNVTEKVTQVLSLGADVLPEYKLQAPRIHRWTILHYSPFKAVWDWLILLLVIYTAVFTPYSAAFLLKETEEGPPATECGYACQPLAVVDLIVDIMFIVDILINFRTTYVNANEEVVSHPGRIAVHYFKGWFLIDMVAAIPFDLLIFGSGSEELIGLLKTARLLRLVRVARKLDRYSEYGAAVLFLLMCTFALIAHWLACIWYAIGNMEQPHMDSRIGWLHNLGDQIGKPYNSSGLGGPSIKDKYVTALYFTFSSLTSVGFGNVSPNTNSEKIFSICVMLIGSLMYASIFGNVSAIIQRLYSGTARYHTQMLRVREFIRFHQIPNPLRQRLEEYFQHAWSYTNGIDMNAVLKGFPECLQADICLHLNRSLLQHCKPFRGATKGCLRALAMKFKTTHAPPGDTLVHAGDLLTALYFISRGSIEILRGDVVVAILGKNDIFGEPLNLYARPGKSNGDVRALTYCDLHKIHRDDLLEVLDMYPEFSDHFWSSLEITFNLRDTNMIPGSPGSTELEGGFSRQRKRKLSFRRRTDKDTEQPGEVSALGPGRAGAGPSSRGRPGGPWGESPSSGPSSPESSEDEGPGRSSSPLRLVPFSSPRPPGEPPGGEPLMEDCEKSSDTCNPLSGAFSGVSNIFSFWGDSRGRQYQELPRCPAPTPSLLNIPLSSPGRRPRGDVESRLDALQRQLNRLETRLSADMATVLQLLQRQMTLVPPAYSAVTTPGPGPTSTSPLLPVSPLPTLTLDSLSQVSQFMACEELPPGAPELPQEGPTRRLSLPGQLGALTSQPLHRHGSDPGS
T1 sequence (P11712 whole entry): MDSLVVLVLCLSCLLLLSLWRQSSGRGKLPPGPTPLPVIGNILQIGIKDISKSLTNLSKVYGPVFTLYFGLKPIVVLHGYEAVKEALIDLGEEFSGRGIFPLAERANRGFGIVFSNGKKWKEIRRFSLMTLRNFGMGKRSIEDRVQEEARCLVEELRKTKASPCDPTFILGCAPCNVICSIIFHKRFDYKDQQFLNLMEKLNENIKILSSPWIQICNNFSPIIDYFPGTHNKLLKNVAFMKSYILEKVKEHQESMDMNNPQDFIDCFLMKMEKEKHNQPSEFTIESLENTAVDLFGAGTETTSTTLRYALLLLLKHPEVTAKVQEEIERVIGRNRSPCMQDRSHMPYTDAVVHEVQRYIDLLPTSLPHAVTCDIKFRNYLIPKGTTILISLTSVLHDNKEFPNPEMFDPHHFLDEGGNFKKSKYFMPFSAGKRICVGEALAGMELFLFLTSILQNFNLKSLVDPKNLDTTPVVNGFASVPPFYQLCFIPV
T7 sequence (P33261 whole entry): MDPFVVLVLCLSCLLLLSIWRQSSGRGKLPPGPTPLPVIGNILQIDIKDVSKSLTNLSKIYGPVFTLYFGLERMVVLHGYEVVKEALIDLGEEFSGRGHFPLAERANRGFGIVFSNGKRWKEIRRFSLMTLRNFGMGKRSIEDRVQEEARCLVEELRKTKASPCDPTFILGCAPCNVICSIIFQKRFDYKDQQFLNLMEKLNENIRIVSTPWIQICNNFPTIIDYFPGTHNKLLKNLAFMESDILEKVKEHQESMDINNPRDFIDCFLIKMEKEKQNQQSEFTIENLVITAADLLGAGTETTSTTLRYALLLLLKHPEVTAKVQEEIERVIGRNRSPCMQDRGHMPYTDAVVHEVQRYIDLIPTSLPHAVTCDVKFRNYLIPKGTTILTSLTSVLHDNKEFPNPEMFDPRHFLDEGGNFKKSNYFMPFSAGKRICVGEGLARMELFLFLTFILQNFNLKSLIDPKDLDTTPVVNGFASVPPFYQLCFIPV
T5 sequence (P00503 2-413): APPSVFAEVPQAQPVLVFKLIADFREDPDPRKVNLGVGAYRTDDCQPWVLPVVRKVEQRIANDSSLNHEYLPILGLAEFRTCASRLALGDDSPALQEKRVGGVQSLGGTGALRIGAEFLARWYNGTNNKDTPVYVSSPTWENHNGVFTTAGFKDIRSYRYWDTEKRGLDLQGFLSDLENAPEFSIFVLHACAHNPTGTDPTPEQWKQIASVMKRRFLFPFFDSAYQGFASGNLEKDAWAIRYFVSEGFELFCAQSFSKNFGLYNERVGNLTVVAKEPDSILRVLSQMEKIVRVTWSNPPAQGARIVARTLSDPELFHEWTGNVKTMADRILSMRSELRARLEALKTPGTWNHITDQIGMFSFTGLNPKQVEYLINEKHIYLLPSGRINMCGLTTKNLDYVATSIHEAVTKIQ

N[C@H]1C[C@@H](C(=O)O)CC1=C(F)F [CPP-115, (1S,3S)-3-amino-4-difluoromethylenyl-1-cyclopentanoic acid]
CYP inhibition or induction (CYP2C9 [1]): does not inhibit or induce
inhibition of the activity of the hERG channel (hERG channel [2]): does not inhibit
doses suppressing spasms, lower than those used for vigabatrin (infantile spasms): over 100 fold
block of cocaine-induced hippocampal metabolism [3]: did not completely block
inactivation or inhibition of off-target enzyme [4]: not to inactivate or inhibit
CYP inhibition or induction (CYP3A [5]): does not inhibit or induce
Ki [6]: 116 µM
CYP inhibition or induction (CYP2D6 [7]): does not inhibit or induce
inactivation or inhibition of off-target enzyme [8]: not to inactivate or inhibit
CYP inhibition or induction (CYP2C8 [9]): does not inhibit or induce
CYP inhibition or induction (CYP2C19 [10]): does not inhibit or induce
CYP inhibition or induction (CYP1A [11]): does not inhibit or induce
CYP inhibition or induction (CYP2B6 [12]): does not inhibit or induce

COC(=O)[C@H]1[C@@H](OC(=O)c2ccccc2)C[C@@H]2CC[C@H]1N2C [Cocaine, cocaine, reference compound]
%= (Percent inhibition of cocaine-induced increase in synaptic dopamine) ([13]; cocaine 10 mg/kg alone): −36%
ST-CB/CB ([13]; cocaine 10 mg/kg alone): 2.39 ± 0.21
reduction of [11C]-raclopride binding ([13]; cocaine 10 mg/kg alone): 36%

N[C@H]1C=C(C(=O)O)CC1=C(F)F [Compound 5, (S)-3-amino-4-(difluoromethylenyl)cyclopent-1-ene-1-carboxylic acid]
CYP inhibition or induction (CYP2D6 [14]): does not inhibit or induce
metabolism in human liver microsomes [15]: No metabolism
CYP inhibition or induction (CYP2C9 [16]): does not inhibit or induce
CYP inhibition or induction (CYP2C19 [17]): does not inhibit or induce
more effective at inhibiting GABA-AT than OAT ([18]; GABA-AT versus OAT): 44 times
efficiency as an inactivator of OAT relative to CPP-115 ([18]; ratio of kinact/KI): 9.0 times
CYP inhibition or induction (CYP3A [19]): does not inhibit or induce
Ames test for mutagenicity [20]: negative
time-dependent inhibition [21]: does not cause time-dependent inhibition
IC50 ([21]; reversible inhibition): > 4000 µM
CYP inhibition or induction (CYP2B6 [22]): does not inhibit or induce
CYP inhibition or induction (CYP1A [23]): does not inhibit or induce
cocaine-induced activation in the hippocampus (18FDG uptake) [24]: no activation in the hippocampus was detected
activity at 176 pharmacological targets [25]: no significant activity
time-dependent inhibition [26]: does not cause time-dependent inhibition
CYP inhibition or induction (CYP2C8 [27]): does not inhibit or induce
NOAEL (Irwin): 6 mg/kg
inhibition of the activity of the hERG channel (hERG channel [28]): does not inhibit
reduction of [11C]-raclopride binding ([13]; 5 0.01 mg/kg 30 minutes prior to cocaine): 20%
ST-CB/CB ([13]; 5 0.01 mg/kg 30 minutes prior to cocaine 10 mg/kg): 3.01 ± 0.44
%= (Percent inhibition of cocaine-induced increase in synaptic dopamine) ([13]; 5 0.01 mg/kg prior to cocaine 10 mg/kg): −20%
reduction of [11C]-raclopride binding ([13]; 5 0.1 mg/kg prior to cocaine): 12%
%= (Percent inhibition of cocaine-induced increase in synaptic dopamine) [13, 30]: −12%
ST-CB/CB [13, 30]: 3.31 ± 0.52
change in [11C]-raclopride binding ([13]; 5 1.0 mg/kg prior to cocaine): no significant change
%= (Percent inhibition of cocaine-induced increase in synaptic dopamine) [13, 31]: −5%
ST-CB/CB [13, 31]: 3.56 ± 2.11
reduction of [11C]-raclopride binding ([13]; 5 1.0 mg/kg prior to cocaine (comparable to control)): 5%
change in [11C]-raclopride binding ([13]; 5 1.0 mg/kg prior to nicotine): no significant change

C=CC(N)CCC(=O)O (stereo not drawn) [vigabatrin]
block of cocaine-induced hippocampal metabolism [3]: did not completely block
patients with permanent retinal damage [29]: 25–40%
patients achieving abstinence (cocaine addiction): up to 28%
